Six compounds from patent US12508431B2, “Method and apparatus for electrical current therapy of biological tissue and insulin release therefrom” (ROCKY MOUNTAIN BIPHASIC, INC., priority 2019, dated 2025) can be followed below.

Test [1] deals with INS-1 cells. The test can be described thus: Transmembrane potential assay by DiBAC4(3) staining. The test is classed as cell-based, rat. Conditions: 30 min in staining buffer with 5 μM DiBAC4(3), valinomycin 100 nM, gramicidin 100 nM, KCl 140 mM, FIG. 8A. The protocol: The transmembrane potential (TMP) was estimated using DiBAC4(3) staining as previously described. For these studies, INS-1 cells were grown to 95% confluency in 6-well plates. The medium was aspirated, replaced with 3 mL fresh complete medium per well, and subjected to mock stimulation or ACBPS (10 Hz, (2.5 ms)/(2.5 ms) pulse duration, 25 V magnitude) for 30 min. Immediately following the stimulation period, the medium was aspirated from each well and replaced with 2 mL per well staining buffer (20 mM HEPES, 120 mM NaCl, 2 mM KCl, 2 mM CaCl2), 1 mM MgCl2, and 5 mM glucose [pH 7.4]) containing 5 μM DiBAC4(3) with DMSO (mock and ACBPS), valinomycin (100 nM), gramicidin (100 nM) or KCl (140 mM). The cells were allowed to incubate in staining buffer at 37° C. for 30 min. Thereafter, the fluorescence intensity of DiBAC4(3) stained INS-1 cells (Ex 490 nm/Em 516 nm) was measured using a BioTek Synergy H1 plate reader programmed to acquire 49 (7×7) individual measurements per well.

In test [2] the test system is INS-1 cells. Format: cell-based, rat. As to conditions: FIG. 5A/5B; for ACBPS-induced insulin release: ACBPS 10 Hz, 25 V; for basal insulin release: mock stimulation. The protocol:
A rat insulinoma cell line INS-1 was obtained and were grown in 6-well polystyrene culture plates as attached monolayers in RPMI1640 culture medium supplemented with 10% fetal bovine serum, 10 mM HEPES, 1 mM sodium pyruvate, 2 mM L-glutamine, 0.05 mM 2-mercaptoethanol, 100 IU/mL penicillin and 100 μg/mL streptomycin (i.e., complete medium). Cells were maintained and experiments were conducted in a humidified atmosphere of 5% CO2 in air at 37° C. Select studies were carried out in glucose-free RPMI1640 culture medium supplemented with reagents as described above. In these experiments, the regular medium was exchanged for glucose-free medium 16 hours prior to the electrical stimulation experiment.
ACBPS was applied to cells using a C-Pace EP cell culture stimulator in combination with a C-dish electrode array for a 6-well plate. Control cells were mock stimulated using an identical 6-well C-dish electrode array that was not connected to the stimulator. Unless otherwise stated, the biphasic stimulation parameters were anodal followed by cathodal at 10 Hz (frequency), 5 milliseconds (ms) (total pulse duration), and 25 V (pulse magnitude).
Insulin release from INS-1 cells into the culture medium was determined by ELISA (Rat Insulin ELISA Kit) per the manufacturer's instructions. For these studies, cells were grown to approximately 95% confluency in 6-well plates containing 3 mL complete medium/well. 16 hours before stimulation, the medium was replaced with 3 mL fresh complete medium. Immediately prior to stimulation, the medium was aspirated, the cells were washed twice with 2 mL phosphate buffered saline (PBS), and then 3 mL fresh complete medium was added to each well. Cells were subjected to ACBPS (10 Hz, (2.5 ms)/(2.5 ms) pulse duration (i.e. anodal duration/cathodal duration), 10-25 V magnitude) or mock stimulation for the indicated times. At the end of the stimulation periods, a 0.5 mL sample of medium was removed from each well and stored frozen at −70° C. for later analysis. In some studies, cells were grown for 16 hours in glucose-free medium prior to stimulation. To examine a role for electrolysis products in promoting insulin release, an additional series of experiments were conducted that involved the application of ACBPS (10 Hz, (2.5 ms)/(2.5 ms) pulse duration, 25 V magnitude) or no stimulation (mock) for 30 min to 6-well plates containing only complete medium (3 mL per well) (i.e., no cells). At the end of the stimulation period, the “pre-stimulated” medium was transferred to cells that had been washed twice with PBS (as above). The cells were allowed to incubate with the pre-stimulated medium for 30 min, after which a 0.5 mL sample of medium was removed from each well and stored frozen at −70° C. for latter analysis. The insulin concentration of the culture medium was measured by colorimetric ELISA using 2 μL of the culture medium as described by the manufacturer. Culture medium samples and insulin standards were allowed to bind for 16 hours at 4° C.

In the case of `[Cl-].[K+]` [KCl], the “DiBAC4(3) fluorescence” value in test [1] is “increased”.

As to `CC[C@@H]1/C=C/C=C/C[C@H](C)[C@H](O)[C@](C)(O)C(=O)[C@H](C)[C@@H](O)[C@H](C)C(=O)[C@H](C)[C@@H](O)[C@H](C)/C=C/C(=O)O[C@H]2[C@@H](C)[C@@H](CC1)O[C@@]1(CC[C@@H](C)[C@@H](C[C@H](C)O)O1)[C@@H]2C` [oligomycin A], in test [2], the ACBPS-induced insulin release entry was “inhibited” and the basal insulin release entry is listed as “inhibited”.

Antimycin A: in test [2], the ACBPS-induced insulin release result is recorded as “inhibited” and the basal insulin release entry is on record as “inhibited”. For the compound gramicidin A, in test [1], the “DiBAC4(3) fluorescence” value is reported as “increased”.

`CC(C)[C@@H]1NC(=O)[C@H](C)OC(=O)[C@@H](C(C)C)NC(=O)[C@@H](C(C)C)OC(=O)[C@H](C(C)C)NC(=O)[C@H](C)OC(=O)[C@@H](C(C)C)NC(=O)[C@@H](C(C)C)OC(=O)[C@H](C(C)C)NC(=O)[C@H](C)OC(=O)[C@@H](C(C)C)NC(=O)[C@@H](C(C)C)OC1=O` [valinomycin]: the “DiBAC4(3) fluorescence” value in test [1] is “decrease”. Consider `COc1ccc(CCN(C)CCCC(C#N)(c2ccc(OC)c(OC)c2)C(C)C)cc1OC` (centres unmarked) [verapamil], for which the basal insulin release entry in test [2] was “inhibited”.
